For this assay, the target named is T1, human OX2R (Homo sapiens, UniProt O43614).
T1 construct: expressed in transfected cells; host or cells: Chinese hamster ovary (CHO) cells, kept under G418 selection
T1 sequence (O43614 1-444): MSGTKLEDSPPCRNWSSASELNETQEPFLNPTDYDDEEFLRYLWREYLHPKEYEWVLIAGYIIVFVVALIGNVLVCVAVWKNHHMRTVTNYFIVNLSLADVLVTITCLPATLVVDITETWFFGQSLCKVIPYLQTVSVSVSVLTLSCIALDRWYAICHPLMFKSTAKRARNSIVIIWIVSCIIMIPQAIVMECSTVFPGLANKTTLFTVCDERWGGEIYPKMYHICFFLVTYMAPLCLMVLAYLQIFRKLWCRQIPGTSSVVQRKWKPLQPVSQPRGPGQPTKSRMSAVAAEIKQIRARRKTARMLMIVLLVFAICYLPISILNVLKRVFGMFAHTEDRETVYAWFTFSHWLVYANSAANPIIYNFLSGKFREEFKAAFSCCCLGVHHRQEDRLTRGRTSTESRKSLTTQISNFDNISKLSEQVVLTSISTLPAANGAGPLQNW
Briefly: IPOne (IP-1 accumulation) assay of orexin receptor agonist activity in CHO cells expressing human OX2R. Type of assay: cell-based. As to conditions: for IC50: CHO cells expressing human OX2R, IP-One assay, 2 hours incubation, four parameter logistic fit, read-out: hOX2R_IP IC50; for Emax: CHO, percent activity at maximum tested concentration, relative to reference compound at 1 uM (100% activity) for human OX2R.

Results on ten compounds are retold here after patent publication US20250282760A1 (Merck Sharp & Dohme LLC, priority 2022, published 2025).

What is called IC50 is the midpoint of a concentration-inhibition curve. A word on the Emax: it is the greatest response seen or fitted, relative to the assay's reference. Consider `CCC(=O)N1CCN(S(=O)(=O)c2ccccc2)CC1C(=O)NCc1ccc2ccccc2c1` (centres unmarked) [Example 10-2, N-(naphthalen-2-ylmethyl)-4-(phenylsulfonyl)-1-propionylpiperazine-2-carboxamide], for which the IC50 amounted to 8.9 µM and the Emax came to 97.4%.
In the same order, the values of `O=C(NCc1ccc2ccccc2c1)C1CN(S(=O)(=O)c2ccccc2)CCN1C(=O)C1CC1` (centres unmarked) [Example 10-5, 1-(cyclopropanecarbonyl)-N-(naphthalen-2-ylmethyl)-4-(phenylsulfonyl)piperazine-2-carboxamide] are 8.99 µM and 98.7%.
In the case of `O=C(NCc1ccc2ccccc2c1)C1CN(S(=O)(=O)c2ccc(F)cc2)CCN1C(=O)c1cccs1` (centres unmarked) [Example 89-9, 4-[(4-fluorophenyl)sulfonyl]-N-[(naphthalen-2-yl)methyl]-1-(thiophene-2-carbonyl)piperazine-2-carboxamide], the IC50 amounted to 5.51 µM and the Emax is 89.6%.
In the case of `CCCc1ccc(CNC(=O)[C@H]2CN(S(=O)(=O)c3ccccc3)C[C@@H](C)N2C(=O)C(C)C)cc1` (relative stereo) [Example 19-10, cis-1-isobutyryl-6-methyl-4-(phenylsulfonyl)-N-(4-propylbenzyl)piperazine-2-carboxamide], the IC50 stood at 0.158 µM and the Emax was found to be 93.8%.
In the case of `CC(C)C(=O)N1[C@H](C)CN(S(=O)(=O)c2ccccc2)C[C@@H]1C(=O)NCc1ccc(OC(C)(F)F)cc1` (single isomer, unassigned) [Example 19-4-1], the IC50 amounted to 0.0227 µM and the Emax is 100%.
For the compound `N#Cc1cccc(S(=O)(=O)N2CCN(C(=O)c3cccs3)C(C(=O)NCc3ccc4ccccc4c3)C2)c1` (centres unmarked) [Example 89-6, 4-[(3-cyanophenyl)sulfonyl]-N-[(naphthalen-2-yl)methyl]-1-(thiophene-2-carbonyl)piperazine-2-carboxamide], the IC50 turned out to be 6.09 µM and the Emax worked out at 67.5%.
With `CC(=O)N1CCN(S(=O)(=O)c2ccccc2)CC1C(=O)NCc1ccc2ccccc2c1` (centres unmarked) [Example 11, 1-acetyl-N-(naphthalen-2-ylmethyl)-4-(phenylsulfonyl)piperazine-2-carboxamide], the half-inhibitory concentration (IC50) amounted to 34.7 µM and the Emax was found to be 81.6%.
For `CC(C)C(=O)N1[C@H](C)CN(S(=O)(=O)c2ccccc2)C[C@@H]1C(=O)NCc1ccc(-c2ccco2)cc1F` (relative stereo) [Example 32, cis-N-(2-fluoro-4-(furan-2-yl)benzyl)-1-isobutyryl-6-methyl-4-(phenylsulfonyl)piperazine-2-carboxamide] the same measures were 0.0585 µM and 99.9%.
Take `CC(C)C(=O)N1[C@H](C)CN(S(=O)(=O)c2ccccc2)C[C@@H]1C(=O)NCc1ccc(CC(C)(F)F)cc1` (single isomer, unassigned) [Example 66]: the IC50 turned out to be 2.23 µM and the Emax was 97.9%.
Consider `COc1cc(-c2ccco2)ccc1CNC(=O)[C@H]1CN(S(=O)(=O)c2ccccc2)C[C@@H](C)N1C(=O)C(C)C` (relative stereo) [Example 47-4, cis-N-(4-(furan-2-yl)-2-methoxybenzyl)-1-isobutyryl-6-methyl-4-(phenylsulfonyl)piperazine-2-carboxamide], for which the IC50 came to 0.0279 µM and the Emax amounted to 94.2%.
